Measurements: patent publication US10344019B2 (priority 2010, dated 2019)

How the values were obtained:
Type in all cases: cell-based
[1] = test system: HCV 1a RLuc cells (dicistronic genotype 1a H77 replicon, RLuc reporter); test: microbe, parasite or virus in culture; details: Hepatitis C virus, genotype 1a H77 RLuc replicon; read-out: 1a
Method in brief: (§1)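 Replicons used: genotype 1b Con1, 1a H77, 2a JFH-1, and a 2a JFH-1 chimera with J6-strain NS5A (M31 present), all dicistronic.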

[2] = test system: HCV 1b RLuc cells (dicistronic genotype 1b Con1 replicon, RLuc reporter); test: microbe, parasite or virus in culture; details: Hepatitis C virus, read-out: 1b (nM)
Method in brief: as §1

[3] = test system: HCV 2a JFH-1 Rluc cells (dicistronic genotype 2a JFH-1 replicon, RLuc reporter); test: microbe, parasite or virus in culture; details: Hepatitis C virus, genotype 2a JFH-1 RLuc replicon; read-out: 2a JFH
Method in brief: as §1

[4] = test system: HCV 2b Rluc cells (NS5A chimeric genotype 2a JFH-1 replicon with genotype 2b MD2b-1 NS5A gene, M31 present); test: microbe, parasite or virus in culture; details: Hepatitis C virus, read-out: 2b
Method in brief: (§2)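 Replicon cells stably carrying the listed RLuc-encoding dicistronic replicons were seeded and treated with DMSO serial dilutions of compound (10 mM stocks) diluted into culture medium. After 72 h, cells were lysed and Renilla luciferase activity measured. EC50 was derived by non-linear regression.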

[5] = test system: HCV 3a RLuc cells (NS5A chimeric genotype 1b Con1 replicon with consensus genotype 3a NS5A gene); test: microbe, parasite or virus in culture; details: Hepatitis C virus, read-out: 3a, genotype 3a NS5A chimeric replicon
Method in brief: as §2

[6] = test system: HCV 4a Rluc cells (NS5A chimeric genotype 1b Con1 replicon with genotype 4a NS5A gene); test: microbe, parasite or virus in culture; details: Hepatitis C virus, read-out: 4a
Method in brief: as §2

[7] = test system: Q30R in genotype 1a NS5A, 1a Rluc replicon transfected into Huh-7 cured-51 cells; test: HCV replicon assay, resistance mutant 1a Q30R; details: Hepatitis C virus, Huh-7, read-out: 1a Q30R
Method in brief: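 Q30R introduced into genotype 1a H77 RLuc replicon by site-directed mutagenesis; replicon RNA transfected into Huh-7 cured-51 cells.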

[8] = test system: HCV 2a Rluc cells (NS5A chimeric genotype 2a JFH-1 replicon with genotype 2a J6 strain NS5A gene, M31 present); test: HCV replicon reporter assay, genotype 2a J6 (M31 present); details: Hepatitis C virus, read-out: 2a J6
Method in brief: as §1

Question: Which EC50 [1] does the source give for `COC[C@H]1C[C@@H](c2nc3ccc4cc5c(cc4c3[nH]2)OCc2cc(-c3cnc([C@@H]4CCCN4C(=O)[C@H](NC(=O)OC)c4ccccc4)[nH]3)ccc2-5)N(C(=O)[C@@H](NC(=O)OC)C(C)C)C1` [Example 544] here?
Answer: The EC50 was 0.001 to 0.999 nM.

Question: And the EC50 [2]?
Answer: Its EC50 is 0.026 nM.

Question: And the EC50 [3]?
Answer: Its EC50 is 0.001 to 0.999 nM.

Question: And the EC50 [4]?
Answer: The EC50 was 0.001 to 0.999 nM.

Question: And the EC50 [5]?
Answer: The EC50 was 0.001 to 0.99 nM.

Question: What about the EC50 [6] of the same molecule?
Answer: The EC50 was 0.001 to 0.99 nM.

Question: What about the EC50 [7] of the same molecule?
Answer: The EC50 was 0.001 to 0.999 nM.

Question: And the EC50 [8]?
Answer: The EC50 was 0.001 to 0.999 nM.

Question: `COC[C@H]1C[C@@H](c2nc3ccc4cc(-c5ccc6c(ccc7nc([C@@H]8C[C@H](C)CN8C(=O)[C@@H](NC(=O)OC)C(C)C)[nH]c76)c5)ccc4c3[nH]2)N(C(=O)[C@H](N)c2ccccc2)C1` [Example 545] was tested. Which EC50 [1] did it give?
Answer: Its EC50 is 0.001 to 0.999 nM.

Question: And the EC50 [2]?
Answer: The EC50 was 0.075 nM.

Question: What about the EC50 [3] of the same molecule?
Answer: Its EC50 is 0.001 to 0.999 nM.

Question: And the EC50 [4]?
Answer: The EC50 was 0.001 to 0.999 nM.

Question: And the EC50 [5]?
Answer: The EC50 was 0.001 to 0.99 nM.

Question: And the EC50 [6]?
Answer: The EC50 was 0.001 to 0.99 nM.

Question: What about the EC50 [7] of the same molecule?
Answer: The EC50 was 0.001 to 0.999 nM.

Question: And the EC50 [8]?
Answer: Its EC50 is 0.001 to 0.999 nM.

Question: `COC[C@H]1C[C@@H](c2nc3ccc4cc(-c5ccc6c(ccc7nc([C@@H]8C[C@H](SC)CN8C(=O)[C@@H](NC(=O)OC)C(C)C)[nH]c76)c5)ccc4c3[nH]2)N(C(=O)[C@H](NC(=O)OC)c2ccccc2)C1` [Example 546] was tested. Which EC50 [1] did it give?
Answer: The EC50 was 0.001 to 0.999 nM.

Question: And the EC50 [2]?
Answer: Its EC50 is 0.048 nM.

Question: What about the EC50 [3] of the same molecule?
Answer: The EC50 was 0.001 to 0.999 nM.

Question: What about the EC50 [4] of the same molecule?
Answer: Its EC50 is 0.001 to 0.999 nM.

Question: And the EC50 [5]?
Answer: The EC50 was 0.001 to 0.99 nM.

Question: What about the EC50 [6] of the same molecule?
Answer: Its EC50 is 0.001 to 0.99 nM.

Question: What about the EC50 [7] of the same molecule?
Answer: Its EC50 is 0.001 to 0.999 nM.

Question: What about the EC50 [8] of the same molecule?
Answer: Its EC50 is 0.001 to 0.999 nM.

Question: For `COC[C@H]1C[C@@H](c2nc3ccc4cc(-c5ccc6c(ccc7nc([C@@H]8C[C@H]9C[C@H]9N8C(=O)[C@H](NC(=O)OC)c8ccccc8)[nH]c76)c5)ccc4c3[nH]2)N(C(=O)[C@@H](NC(=O)OC)C(C)C)C1` [Example 548], which EC50 [1] is on record?
Answer: The EC50 was 0.001 to 0.999 nM.

Question: And the EC50 [2]?
Answer: The EC50 was 0.006 nM.

Question: What about the EC50 [3] of the same molecule?
Answer: The EC50 was 0.001 to 0.999 nM.

Question: And the EC50 [4]?
Answer: The EC50 was 0.001 to 0.999 nM.

Question: What about the EC50 [5] of the same molecule?
Answer: The EC50 was 0.001 to 0.99 nM.

Question: What about the EC50 [6] of the same molecule?
Answer: Its EC50 is 0.001 to 0.99 nM.

Question: What about the EC50 [7] of the same molecule?
Answer: The EC50 was 0.001 to 0.999 nM.

Question: What about the EC50 [8] of the same molecule?
Answer: The EC50 was 0.001 to 0.999 nM.

Question: What does the source list for `COCC(=O)N[C@@H](C(=O)N1C[C@@H](COC)C[C@H]1c1nc2ccc3cc(-c4ccc5c(ccc6nc([C@@H]7C[C@H](C)CN7C(=O)[C@@H](NC(=O)OC)C(C)C)[nH]c65)c4)ccc3c2[nH]1)c1ccccc1` [Example 550]?
Answer: EC50 [1]: 0.001 to 0.999 nM; EC50 [2]: 0.013 nM; EC50 [3]: 0.001 to 0.999 nM; EC50 [4]: 0.001 to 0.999 nM; EC50 [5]: 0.001 to 0.99 nM; EC50 [6]: 0.001 to 0.99 nM; EC50 [7]: 0.001 to 0.999 nM; EC50 [8]: 0.001 to 0.999 nM

Question: Which results are given for `CCO[C@H]1C[C@@H](c2nc3ccc4cc5c(cc4c3[nH]2)OCc2cc(-c3cnc([C@@H]4CCCN4C(=O)[C@@H](NC(=O)OC)C(C)C)[nH]3)ccc2-5)N(C(=O)[C@@H](NC(=O)OC)C(C)C)C1` [Example 551]?
Answer: EC50 [1]: 0.001 to 0.999 nM; EC50 [2]: 0.018 nM; EC50 [3]: 0.001 to 0.999 nM; EC50 [4]: 0.001 to 0.999 nM; EC50 [5]: 0.001 to 0.99 nM; EC50 [6]: 0.001 to 0.99 nM; EC50 [7]: 0.001 to 0.999 nM; EC50 [8]: 0.001 to 0.999 nM

Question: Which EC50 [1] does the source give for `CCO[C@H]1C[C@@H](c2nc3ccc4cc5c(cc4c3[nH]2)OCc2cc(-c3cnc([C@@H]4CCCN4C(=O)[C@H](NC(=O)OC)c4ccccc4)[nH]3)ccc2-5)N(C(=O)[C@@H](NC(=O)OC)C(C)C)C1` [Example 552] here?
Answer: The EC50 was 0.001 to 0.999 nM.

Question: What about the EC50 [2] of the same molecule?
Answer: The EC50 was 0.033 nM.

Question: What about the EC50 [3] of the same molecule?
Answer: Its EC50 is 0.001 to 0.999 nM.

Question: And the EC50 [4]?
Answer: The EC50 was 0.001 to 0.999 nM.

Question: And the EC50 [5]?
Answer: The EC50 was 0.001 to 0.99 nM.

Question: What about the EC50 [6] of the same molecule?
Answer: The EC50 was 0.001 to 0.99 nM.

Question: And the EC50 [7]?
Answer: The EC50 was 0.001 to 0.999 nM.

Question: What about the EC50 [8] of the same molecule?
Answer: The EC50 was 0.001 to 0.999 nM.

Question: Which EC50 [1] does the source give for `COC[C@H]1C[C@@H](c2nc3ccc4cc(-c5ccc6c(ccc7nc([C@@H]8CC[C@H](C)N8C(=O)[C@@H](NC(=O)OC)C(C)C)[nH]c76)c5)ccc4c3[nH]2)N(C(=O)[C@H](NC(=O)OC)c2ccccc2)C1` [Example 554] here?
Answer: Its EC50 is 0.001 to 0.999 nM.

Question: And the EC50 [2]?
Answer: Its EC50 is 0.012 nM.

Question: What about the EC50 [3] of the same molecule?
Answer: The EC50 was 0.001 to 0.999 nM.

Question: And the EC50 [4]?
Answer: The EC50 was 0.001 to 0.999 nM.

Question: What about the EC50 [5] of the same molecule?
Answer: Its EC50 is 0.001 to 0.99 nM.

Question: What about the EC50 [6] of the same molecule?
Answer: The EC50 was 0.001 to 0.99 nM.

Question: And the EC50 [7]?
Answer: The EC50 was 0.001 to 0.999 nM.

Question: And the EC50 [8]?
Answer: The EC50 was 0.001 to 0.999 nM.

Question: What does the source list for `COC[C@H]1C[C@@H](c2nc3ccc4cc5c(cc4c3[nH]2)OCc2cc(-c3cnc([C@@H]4C[C@H](C)CN4C(=O)[C@@H](NC(=O)OC)C(C)C)[nH]3)ccc2-5)N(C(=O)[C@H](NC(=O)OC)c2ccccc2)C1` [Example 555]?
Answer: EC50 [1]: 0.001 to 0.999 nM; EC50 [2]: 0.021 nM; EC50 [3]: 0.001 to 0.999 nM; EC50 [4]: 0.001 to 0.999 nM; EC50 [5]: 0.001 to 0.99 nM; EC50 [6]: 0.001 to 0.99 nM; EC50 [7]: 0.001 to 0.999 nM; EC50 [8]: 0.001 to 0.999 nM
